≈ marks a conversion by molar mass, not a printed value. Like-named read-outs stand apart in the source and are kept apart here. No end group written: not given here.
What was measured:
[1] = tested on: E. coli RS218
[2] = tested on: E. coli PCN033
[3] = tested on: E. coli RS218; assay: microbe, parasite or virus in culture; conditions: Escherichia coli; for MBC: RS218, read-out: MBC, E. coli RS218, colony counting on LB agar from wells without visible growth; for MIC: RS218, read-out: MIC, E. coli RS218, MHB microdilution, 16-20 h at 37 °C, triplicate, lowest concentration inhibiting visual growth
[4] = tested on: PCN033 and RS218; assay: MIC and MBC, summary over both strains; assay type: cell-based; conditions: Escherichia coli; for MBC: read-out: MBCs against PCN033 and RS218; for MIC: read-out: MICs against PCN033 and RS218
[5] = tested on: E. coli PCN033; assay: microbe, parasite or virus in culture; conditions: Escherichia coli; for MBC: PCN033, read-out: MBC, E. coli PCN033, colony counting on LB agar from wells without visible growth; for MIC: PCN033, read-out: MIC, E. coli PCN033, MHB microdilution, 16-20 h at 37 °C, triplicate, lowest concentration inhibiting visual growth
[6] = tested on: PCN033; assay: Time-kill curve assay; assay type: cell-based, Escherichia coli; conditions: sub-MBC: PMAP-36 1/4 MBC, tetracycline 1/16 MBC, gentamicin 1/8 MBC, 37 °C
[7] = tested on: PCN033; assay: Scanning electron microscopy of treated bacteria; assay type: cell-based, Escherichia coli; conditions: tetracycline 1/16 MBC, PMAP-36 1/4 MBC, alone or combined, MHB 37 °C
[8] = tested on: PCN033; assay type: cell-based, Escherichia coli
[9] = tested on: PCN033; assay: Mouse model of systemic infection with PCN033; assay type: in vivo; conditions: C57BL/6 mice, 1 × 10^7 CFU PCN033 i.p., 30 mg/kg tetracycline i.p. 2 h after infection, n = 10/group
Protocol: Female C57BL/6 mice (6–8 weeks old) were obtained from Chongqing Lepitt Biotechnology Co., Ltd. This study was approved by the Institutional Animal Care and Use Committee (IACUC) of Southwest University, Chongqing, China (IACUC-20221022-18). […] Afterwards, different assays were performed as described below.
For the generation of survival curves, mice (n = 10/group) were monitored every 6 h until 72 h post-infection. Statistical analysis was conducted by the log rank (Mantel‒Cox) test in GraphPad Prism 8.0 software.
Mice (n = 5/group) were euthanized at 12 h post-infection. Then, organs (spleen, liver, and lung), blood and peritoneal lavage fluid (PLF) were collected and homogenized to determine the bacterial load via serial tenfold dilutions, plating on LB agar plates, and incubation at 37 °C overnight.
For histopathological observation, mice (n = 3/group) were euthanized at 12 h post-infection. Then, the lung tissues were fixed with 10% formaldehyde for over one week and embedded in paraffin for histological analysis.
For cytokine detection, the mice (n = 3/group) were euthanized at 12 h post-infection. Then, the expression of inflammatory cytokines (IL-1α, IL-1β, IL-6, IL-12 and TNF-α) in the lungs, liver, spleen, and PLF and the expression of chemokines (CXCL1 and CXCL2) in the PLF were determined using ELISA kits. […]

[10] = tested on: E. coli PCN033; assay: Checkerboard assay, fractional bactericidal concentration index; assay type: cell-based, Escherichia coli; conditions: PMAP-36 with tetracycline, against multidrug-resistant porcine ExPEC
[11] = tested on: monocytes and macrophages in the PLF; assay: Flow cytometry of immune cells in peritoneal lavage fluid of infected mice; assay type: in vivo, mouse; conditions: 12 h post-infection, flow cytometry F4/80 and Gr-1, n = 3/group
Protocol: Mice were infected and treated with the test compounds as described above. After 12 h of infection, PLF was collected with 2 mL of sterile PBS, and the cells were centrifuged at 1800 rpm for 3 min. Then, the cells were blocked with 1 mL of 2% bovine serum albumin (BSA) in PBS for 30 min. An anti-mouse CD16/32 antibody (1:50) (BioLegend, CA, USA) was used to block nonspecific antibody binding in 0.5% BSA buffer for 30 min at 4 °C. Next, the cells were stained with PE-conjugated anti-mouse F4/80 antibody (1:50) (BioLegend, CA, USA) and FITC-conjugated anti-mouse Ly-6G/Ly-6C (Gr-1) antibody (1:200) (BioLegend, CA, USA) in 0.5% BSA for 30 min at 4 °C. Afterwards, the cells were washed twice with 150 μL of 2% BSA and analysed using flow cytometry.

[12] = MHB microdilution, 16-20 h at 37 °C, triplicate, lowest concentration inhibiting visual growth
[13] = colony counting on LB agar from wells without visible growth

Row | Compound | MIC [3] [µM] | MIC [5] [µM] | MIC, E. coli RS218 ([1]; RS218) [µM] | MIC, E. coli PCN033 ([2]; PCN033) [µM] | MIC, E. coli PCN033 [2, 12] | MBC, E. coli PCN033 [2, 13] | MBC [3] [µM] | MBC, E. coli RS218 ([1]; RS218) [µM] | MBC, E. coli PCN033 ([2]; PCN033) [µM] | further results
1 | CC1(C)S[C@@H]2[C@H](NC(=O)[C@H](N)c3ccccc3)C(=O)N2[C@H]1C(=O)O [Ampicillin, ampicillin] | 2.5 to 10 (≈ 0.874 to 3.49 µg/mL) |  |  |  | 20,480 μM | 40,960 μM | 5 to 20 (≈ 1.75 to 6.99 µg/mL) |  |  | MIC, E. coli RS218 [1, 12]: 5 µM (≈ 1.75 µg/mL); MBC, E. coli RS218 [1, 13]: 10 µM (≈ 3.49 µg/mL); MIC, E. coli PCN033 ([2]; MHB microdilution, 16-20 h at 37 °C, triplicate, lowest concentration inhibiting visual growth, listed as ampicillin): greater than 160 μM; MBC, E. coli PCN033 ([2]; colony counting on LB agar from wells without visible growth, listed as ampicillin): greater than 1280 μM
2 | CO/N=C(\C(=O)N[C@@H]1C(=O)N2C(C(=O)O)=C(COC(C)=O)CS[C@H]12)c1csc(N)n1 [Cefotaxime, cefotaxime] | < 0.625 | < 0.625 |  |  |  |  | < 0.625 |  |  | MBC [4]: < 0.625 µM; MIC [4]: < 0.625 µM; MBC [5]: < 0.625 µM
3 | CNC(C)C1CCC(N)C(OC2C(N)CC(N)C(OC3OCC(C)(O)C(NC)C3O)C2O)O1 (stereo not shown) [Gentamicin, gentamicin] | 2.5 to 10 (≈ 1.19 to 4.78 µg/mL) | > 160 |  |  | 320 µM (≈ 153 µg/mL) | 1280 µM (≈ 611 µg/mL) | 5 to 20 (≈ 2.39 to 9.55 µg/mL) |  |  | MIC, E. coli RS218 [1, 12]: 2.5 µM (≈ 1.19 µg/mL); MBC, E. coli RS218 [1, 13]: 5 µM (≈ 2.39 µg/mL); bactericidal activity within 120 min, agent alone [6]: did not show obvious bactericidal activity; MBC [5]: > 1280 µM
4 | Cc1onc(-c2ccccc2)c1C(=O)N[C@@H]1C(=O)N2[C@@H]1SC(C)(C)[C@@H]2C(=O)O [Oxacillin, oxacillin] | 320 (≈ 128 µg/mL) |  |  |  | 5120 µM (≈ 2060 µg/mL) | 10,240 μM | 1280 (≈ 514 µg/mL) |  |  | MIC, E. coli PCN033 ([2]; MHB microdilution, 16-20 h at 37 °C, triplicate, lowest concentration inhibiting visual growth, listed as oxacillin): greater than 160 μM
5 | [H]/N=C(/N)N[C@H]1[C@H](O)[C@@H](O)[C@H](O[C@@H]2O[C@@H](C)[C@](O)(C=O)[C@H]2O[C@@H]2O[C@@H](CO)[C@H](O)[C@@H](O)[C@@H]2NC)[C@@H](N/C(N)=N\[H])[C@@H]1O [Streptomycin, streptomycin] | 41000 (≈ 23800 µg/mL) | > 160 |  |  |  |  | > 41000 |  |  | 
6 | CN(C)[C@@H]1C(O)=C(C(N)=O)C(=O)[C@@]2(O)C(O)=C3C(=O)c4c(O)cccc4[C@@](C)(O)[C@H]3C[C@@H]12 [Tetracycline, tetracycline] | 2.5 (≈ 1.11 µg/mL) | 160 (≈ 71.1 µg/mL) |  |  |  |  | 5 (≈ 2.22 µg/mL) |  |  | cell morphology under SEM [7]: slight cell shrinkage; increase of the MIC of tetracycline, 10th generation [8]: 1.5 fold; change of the MIC of tetracycline after 30 generations ([8]; PCN033 grown at sub-MIC: tetracycline 1/4 MIC, PMAP-36 1/4 MIC, or 1/8 MIC + 1/8 MIC, normalised to first generation): threefold; time within which all treated mice died [9]: ≤ 24 h; MBC [4]: 5 to 320 µM (≈ 2.22 to 142 µg/mL); MIC [4]: 2.5 to 320 µM (≈ 1.11 to 142 µg/mL); decrease of MBC when used in combination [10]: 16 fold; number of monocytes and macrophages in the PLF [11]: only slightly increased; MBC [5]: 160 µM (≈ 71.1 µg/mL)
7 | GLLRKGGEKIGEKLKKIGQKIKNFFQKLVPQPEQ [CRAMP] |  |  |  |  | 10 µM | 20 µM |  |  |  | MIC, E. coli RS218 [1, 12]: 5 µM; MBC, E. coli RS218 [1, 13]: 20 µM
8 | PIRNWWIRIWEWLNGIRKRLRQRSPFYVRGHLNVTSTPQP [CATH-B1] |  |  | > 40 | > 40 |  |  |  | > 40 | > 40 | 
9 | RRRPRPPYLPRPRPPPFFPPRLPPRIPPGFPPRFPPRFP [PR-39] |  |  | 2.5 | 5 |  |  |  | 5 | 10 | 

The next lines start with results.

Row | MIC [3] [µM] | MIC [5] [µM] | MIC, E. coli RS218 ([1]; RS218) [µM] | MIC, E. coli PCN033 ([2]; PCN033) [µM] | Compound | MIC, E. coli PCN033 [2, 12] | MBC, E. coli PCN033 [2, 13] | MBC [3] [µM] | MBC, E. coli RS218 ([1]; RS218) [µM] | MBC, E. coli PCN033 ([2]; PCN033) [µM] | further results
10 |  |  | 2.5 | 2.5 | GRFRRLRKKTRKRLKKIGKVLKWIPPIVGSIPLGCG [PMAP-36, porcine myeloid antimicrobial peptide 36] |  |  |  | 5 | 10 | 
11 |  |  | 5 | 10 | RFGRFLRKIRRFRPKVTITIQGSARF [CATH-2] |  |  |  | 10 | 20 | 
12 |  |  | 5 | 10 | RVKRFWPLVPVAINTVAAGINLYKAIRRK [CATH-3] |  |  |  | 10 | 20 | 
